In paper PMC12621043, “Un-LOK-ing a New Approach for Conformational Selective Targeting of STK10 (LOK)” (ACS Medicinal Chemistry Letters, 2025):

Columns and labels:
[1] = biological target: T1, DAPK3 (DAPK3A) (Homo sapiens, UniProt O43293); assay: DSF Tm panel; type: binding; settings: 10 μM compound
T1 construct: purchased in-house DSF kinase panel (SGC-style construct names; the trailing letter is the construct ID)

[2] = biological target: T2, CAMK2DA (Homo sapiens, UniProt Q13557); assay: DSF Tm panel; type: binding; settings: 10 μM compound
T2 construct: purchased in-house DSF kinase panel (SGC-style construct names; the trailing letter is the construct ID)
T2 sequence (Q13557 11-309): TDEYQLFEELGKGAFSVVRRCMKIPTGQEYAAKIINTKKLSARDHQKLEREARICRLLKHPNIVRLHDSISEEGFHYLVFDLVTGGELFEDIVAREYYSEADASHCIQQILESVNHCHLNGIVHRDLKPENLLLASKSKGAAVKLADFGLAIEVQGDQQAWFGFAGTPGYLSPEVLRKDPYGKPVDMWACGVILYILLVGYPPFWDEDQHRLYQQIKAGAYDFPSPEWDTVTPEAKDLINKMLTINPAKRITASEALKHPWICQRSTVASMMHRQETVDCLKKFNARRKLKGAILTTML

[3] = biological target: T3, MAPK15A (MAPK15HSD) (Homo sapiens, UniProt Q8TD08); assay: DSF Tm panel; type: binding; settings: 10 μM compound
T3 sequence (Q8TD08 13-304 limits assumed): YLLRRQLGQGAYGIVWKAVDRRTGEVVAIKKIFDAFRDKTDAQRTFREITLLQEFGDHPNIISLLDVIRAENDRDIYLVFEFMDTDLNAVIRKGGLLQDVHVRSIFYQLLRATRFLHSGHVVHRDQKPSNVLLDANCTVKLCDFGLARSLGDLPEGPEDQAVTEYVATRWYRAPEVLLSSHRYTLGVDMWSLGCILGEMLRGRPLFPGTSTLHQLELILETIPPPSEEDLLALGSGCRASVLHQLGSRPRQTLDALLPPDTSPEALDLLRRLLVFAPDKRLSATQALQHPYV

[4] = biological target: T4, OSR1A (Homo sapiens, UniProt O95747); assay: DSF Tm panel; type: binding; settings: 10 μM compound
T4 construct: purchased in-house DSF kinase panel (SGC-style construct names; the trailing letter is the construct ID)
T4 sequence (O95747 17-291): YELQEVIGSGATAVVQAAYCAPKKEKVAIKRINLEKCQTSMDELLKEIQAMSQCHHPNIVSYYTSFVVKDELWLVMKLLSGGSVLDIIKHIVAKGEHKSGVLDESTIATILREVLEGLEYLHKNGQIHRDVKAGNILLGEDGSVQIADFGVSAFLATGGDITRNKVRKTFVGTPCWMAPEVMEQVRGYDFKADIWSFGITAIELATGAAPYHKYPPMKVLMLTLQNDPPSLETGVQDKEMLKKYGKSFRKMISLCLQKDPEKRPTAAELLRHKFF

[5] = biological target: T5, MST3A (Homo sapiens, UniProt Q9Y6E0); assay: DSF Tm panel; type: binding; settings: 10 μM compound
T5 construct: purchased in-house DSF kinase panel (SGC-style construct names; the trailing letter is the construct ID)
T5 sequence (Q9Y6E0 whole entry): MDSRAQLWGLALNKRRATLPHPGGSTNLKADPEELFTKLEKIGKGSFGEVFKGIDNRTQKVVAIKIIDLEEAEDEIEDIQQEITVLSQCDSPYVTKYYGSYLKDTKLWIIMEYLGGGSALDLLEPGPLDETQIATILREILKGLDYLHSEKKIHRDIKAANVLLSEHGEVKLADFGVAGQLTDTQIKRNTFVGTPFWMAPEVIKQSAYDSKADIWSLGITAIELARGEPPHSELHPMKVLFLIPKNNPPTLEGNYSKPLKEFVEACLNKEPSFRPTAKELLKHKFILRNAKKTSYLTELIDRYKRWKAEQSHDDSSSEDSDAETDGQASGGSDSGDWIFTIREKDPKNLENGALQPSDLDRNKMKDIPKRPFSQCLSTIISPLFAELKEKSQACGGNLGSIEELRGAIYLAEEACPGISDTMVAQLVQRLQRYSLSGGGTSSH

[6] = biological target: T6, AAK1 (AAK1A) (Homo sapiens, UniProt Q2M2I8); assay: DSF Tm panel; type: binding; settings: 10 μM compound
T6 construct: purchased in-house DSF kinase panel (SGC-style construct names; the trailing letter is the construct ID)
T6 sequence (Q2M2I8 27-365): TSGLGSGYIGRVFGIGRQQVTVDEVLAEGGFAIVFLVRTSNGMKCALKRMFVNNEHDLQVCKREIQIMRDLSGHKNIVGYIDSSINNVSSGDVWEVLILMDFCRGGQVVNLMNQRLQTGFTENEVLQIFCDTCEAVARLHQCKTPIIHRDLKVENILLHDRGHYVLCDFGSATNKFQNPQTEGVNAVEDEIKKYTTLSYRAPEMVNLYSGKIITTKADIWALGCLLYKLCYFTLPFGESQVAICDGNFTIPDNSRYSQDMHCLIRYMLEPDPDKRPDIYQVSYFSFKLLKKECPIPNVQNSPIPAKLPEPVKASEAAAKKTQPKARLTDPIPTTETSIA

[7] = biological target: T7, STK17BA (Homo sapiens, UniProt O94768); assay: DSF Tm panel; type: binding; settings: 10 μM compound
T7 construct: purchased in-house DSF kinase panel (SGC-style construct names; the trailing letter is the construct ID)
T7 sequence (O94768 25-329): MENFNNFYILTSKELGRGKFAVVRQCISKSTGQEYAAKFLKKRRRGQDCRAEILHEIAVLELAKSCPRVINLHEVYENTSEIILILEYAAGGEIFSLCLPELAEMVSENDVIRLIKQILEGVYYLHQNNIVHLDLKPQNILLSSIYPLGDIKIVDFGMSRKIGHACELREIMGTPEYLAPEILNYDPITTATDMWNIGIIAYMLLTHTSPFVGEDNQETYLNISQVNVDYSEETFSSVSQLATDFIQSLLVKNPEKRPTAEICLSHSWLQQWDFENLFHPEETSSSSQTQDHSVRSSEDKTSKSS

[8] = biological target: T8, EPHA2 (EPHA2A) (Homo sapiens, UniProt P29317); assay: DSF Tm panel; type: binding; settings: 10 μM compound
T8 construct: purchased in-house DSF kinase panel (SGC-style construct names; the trailing letter is the construct ID)
T8 sequence (P29317 596-900): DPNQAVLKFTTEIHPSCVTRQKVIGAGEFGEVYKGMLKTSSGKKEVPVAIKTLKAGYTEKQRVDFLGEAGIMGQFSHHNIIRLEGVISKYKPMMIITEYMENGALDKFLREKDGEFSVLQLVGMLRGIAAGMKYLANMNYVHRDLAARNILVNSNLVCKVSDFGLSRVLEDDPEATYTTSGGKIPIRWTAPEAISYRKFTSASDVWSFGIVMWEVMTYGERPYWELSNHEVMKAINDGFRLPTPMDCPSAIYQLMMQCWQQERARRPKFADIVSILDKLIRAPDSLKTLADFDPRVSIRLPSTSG

[9] = biological target: T9, DMPK1A (Homo sapiens, UniProt Q09013); assay: DSF Tm panel; type: binding; settings: 10 μM compound
T9 construct: purchased in-house DSF kinase panel (SGC-style construct names; the trailing letter is the construct ID)
T9 sequence (Q09013 1-629): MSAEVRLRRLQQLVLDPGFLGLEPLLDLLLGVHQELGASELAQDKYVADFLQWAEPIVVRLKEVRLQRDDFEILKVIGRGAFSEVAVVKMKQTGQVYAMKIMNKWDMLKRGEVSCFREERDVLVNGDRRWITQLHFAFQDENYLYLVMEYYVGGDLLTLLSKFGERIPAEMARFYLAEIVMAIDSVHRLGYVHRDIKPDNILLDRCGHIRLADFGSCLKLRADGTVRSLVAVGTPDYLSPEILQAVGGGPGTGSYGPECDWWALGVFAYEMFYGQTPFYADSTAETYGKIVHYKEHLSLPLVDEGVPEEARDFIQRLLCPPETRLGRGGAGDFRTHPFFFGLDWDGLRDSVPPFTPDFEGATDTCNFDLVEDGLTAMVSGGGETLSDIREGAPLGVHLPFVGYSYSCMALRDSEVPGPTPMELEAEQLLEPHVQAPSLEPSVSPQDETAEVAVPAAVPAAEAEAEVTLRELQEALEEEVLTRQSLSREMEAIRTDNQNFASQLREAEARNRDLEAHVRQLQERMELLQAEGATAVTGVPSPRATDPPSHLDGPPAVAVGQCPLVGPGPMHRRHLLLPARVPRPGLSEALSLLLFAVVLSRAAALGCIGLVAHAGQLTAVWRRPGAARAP

[10] = biological target: T10, PKMYT1A (Homo sapiens, UniProt Q99640); assay: DSF Tm panel; type: binding; settings: 10 μM compound
T10 construct: purchased in-house DSF kinase panel (SGC-style construct names; the trailing letter is the construct ID)
T10 sequence (Q99640 75-362): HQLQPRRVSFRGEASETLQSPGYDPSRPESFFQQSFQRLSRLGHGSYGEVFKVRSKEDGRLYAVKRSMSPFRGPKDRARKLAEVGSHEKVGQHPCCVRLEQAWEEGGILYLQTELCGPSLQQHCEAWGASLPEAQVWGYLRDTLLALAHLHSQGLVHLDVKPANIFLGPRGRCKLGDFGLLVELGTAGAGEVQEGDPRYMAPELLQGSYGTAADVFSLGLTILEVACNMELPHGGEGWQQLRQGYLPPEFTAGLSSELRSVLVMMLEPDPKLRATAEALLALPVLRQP

[11] = biological target: T11, DCAMKL1A (Homo sapiens, UniProt O15075); assay: DSF Tm panel; type: binding; settings: 10 μM compound
T11 construct: purchased in-house DSF kinase panel (SGC-style construct names; the trailing letter is the construct ID)
T11 sequence (O15075 372-649): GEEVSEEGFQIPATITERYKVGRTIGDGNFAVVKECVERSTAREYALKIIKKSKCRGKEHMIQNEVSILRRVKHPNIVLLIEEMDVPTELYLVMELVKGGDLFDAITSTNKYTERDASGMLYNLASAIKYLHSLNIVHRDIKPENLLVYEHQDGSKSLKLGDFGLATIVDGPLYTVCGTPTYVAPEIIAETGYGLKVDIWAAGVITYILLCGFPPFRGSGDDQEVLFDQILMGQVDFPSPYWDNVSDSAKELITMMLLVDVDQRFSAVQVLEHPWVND

[12] = biological target: SLK (Homo sapiens, UniProt Q9H2G2); assay: NanoBRET target engagement assay; type: cell-based; design: has a greater impact on the full-length protein than on the kinase domains; host or cells: HEK293T (ATCC CRL-3216); settings: HEK293T cells
Chain of SLK (Q9H2G2 whole entry, the tested form may be a part): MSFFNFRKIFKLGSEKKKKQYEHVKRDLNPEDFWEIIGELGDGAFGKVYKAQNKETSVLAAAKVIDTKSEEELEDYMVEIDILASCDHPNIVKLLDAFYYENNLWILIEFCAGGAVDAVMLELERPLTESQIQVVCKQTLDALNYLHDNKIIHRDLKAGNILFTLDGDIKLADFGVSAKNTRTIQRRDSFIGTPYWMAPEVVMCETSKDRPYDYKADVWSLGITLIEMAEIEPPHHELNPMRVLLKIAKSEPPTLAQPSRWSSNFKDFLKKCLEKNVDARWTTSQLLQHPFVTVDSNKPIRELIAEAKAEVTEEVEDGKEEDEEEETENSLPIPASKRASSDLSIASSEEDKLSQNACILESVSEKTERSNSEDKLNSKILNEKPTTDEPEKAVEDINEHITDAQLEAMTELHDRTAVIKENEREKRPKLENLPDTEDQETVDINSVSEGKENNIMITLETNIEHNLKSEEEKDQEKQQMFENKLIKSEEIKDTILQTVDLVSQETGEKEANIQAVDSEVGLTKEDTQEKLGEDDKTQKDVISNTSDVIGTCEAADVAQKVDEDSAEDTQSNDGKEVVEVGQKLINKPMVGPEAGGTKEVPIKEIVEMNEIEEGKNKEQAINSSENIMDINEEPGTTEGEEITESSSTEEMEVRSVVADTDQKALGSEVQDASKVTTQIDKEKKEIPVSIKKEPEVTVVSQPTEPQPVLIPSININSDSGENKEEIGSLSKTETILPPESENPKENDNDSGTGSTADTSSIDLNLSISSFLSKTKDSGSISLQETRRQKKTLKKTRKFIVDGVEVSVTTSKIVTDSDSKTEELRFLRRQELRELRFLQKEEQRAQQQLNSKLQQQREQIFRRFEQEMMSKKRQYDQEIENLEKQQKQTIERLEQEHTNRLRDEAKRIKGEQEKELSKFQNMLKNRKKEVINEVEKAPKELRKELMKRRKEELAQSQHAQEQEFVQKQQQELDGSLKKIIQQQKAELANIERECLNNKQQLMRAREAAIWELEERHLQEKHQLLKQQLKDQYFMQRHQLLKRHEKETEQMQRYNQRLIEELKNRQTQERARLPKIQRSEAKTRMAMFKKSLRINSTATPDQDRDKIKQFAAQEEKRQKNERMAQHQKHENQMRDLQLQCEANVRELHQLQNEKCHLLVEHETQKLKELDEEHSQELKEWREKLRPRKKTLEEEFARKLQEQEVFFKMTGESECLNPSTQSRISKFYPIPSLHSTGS

T1 sequence (O43293 whole entry): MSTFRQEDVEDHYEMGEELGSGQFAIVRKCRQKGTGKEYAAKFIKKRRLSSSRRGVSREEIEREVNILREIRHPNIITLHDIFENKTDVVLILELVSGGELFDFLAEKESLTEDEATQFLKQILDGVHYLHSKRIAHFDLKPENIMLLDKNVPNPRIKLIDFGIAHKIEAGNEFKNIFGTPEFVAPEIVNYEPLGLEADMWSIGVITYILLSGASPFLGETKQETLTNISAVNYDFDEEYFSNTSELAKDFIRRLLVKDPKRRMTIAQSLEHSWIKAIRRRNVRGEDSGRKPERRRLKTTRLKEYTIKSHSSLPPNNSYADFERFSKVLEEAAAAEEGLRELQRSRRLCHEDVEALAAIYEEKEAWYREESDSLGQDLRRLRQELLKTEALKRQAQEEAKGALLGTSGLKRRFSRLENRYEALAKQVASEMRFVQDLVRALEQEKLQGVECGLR

Compound | ΔTm at 10 µM [1] | ΔTm at 10 µM [2] | ΔTm at 10 µM [3] | ΔTm at 10 µM [4] | ΔTm at 10 µM [5] | ΔTm at 10 µM [6] | ΔTm at 10 µM [7] | ΔTm at 10 µM [8] | ΔTm at 10 µM [9] | ΔTm at 10 µM [10] | ΔTm at 10 µM [11] | EC50 [12]
O=C(NCc1ccccc1)Nc1ccc2cc1OCCOCCNc1ccn3ncc-2c3n1 [compound 16] | 3.4 °C | 0.2 °C | 4.9 °C | 0.5 °C | 1.5 °C | 8.3 °C | 1.3 °C | 0.8 °C | 0.3 °C | 0.6 °C | 0.8 °C | > 50 µM
O=C(NCc1ccccc1Cl)Nc1ccc2cc1OCCOCCNc1ccn3ncc-2c3n1 [compound 17] | 0.7 °C | 0.4 °C | 6 °C | 0.7 °C | 0.7 °C | 7 °C | 4.1 °C | 0.5 °C | -0.1 °C | 1 °C | 0.7 °C | > 50 µM
O=C(NCc1cccc(Cl)c1)Nc1ccc2cc1OCCOCCNc1ccn3ncc-2c3n1 [compound 18] | 1.3 °C | 0.5 °C | 2.3 °C | 1.7 °C | 0.7 °C | 5.5 °C | 2.4 °C | 0.6 °C | 0.1 °C | 1.5 °C | -0.1 °C | > 50 µM
O=C(NCc1ccc(Cl)cc1)Nc1ccc2cc1OCCOCCNc1ccn3ncc-2c3n1 [compound 19] | 0.9 °C | -0.1 °C | 1.8 °C | 0.7 °C | 0.7 °C | 7.1 °C | 1.2 °C | 0.2 °C | 0.3 °C | 1.4 °C | 0 °C | > 50 µM
O=C(NCc1ccc(Cl)cc1Cl)Nc1ccc2cc1OCCOCCNc1ccn3ncc-2c3n1 [compound 20] | 0.5 °C | 0.9 °C | 1.3 °C | 1.8 °C | 0 °C | 6.3 °C | 2.8 °C | 0.4 °C | 0.7 °C | 1.6 °C | 0.6 °C | > 50 µM
O=C(NCc1ccc(Cl)cc1F)Nc1ccc2cc1OCCOCCNc1ccn3ncc-2c3n1 [compound 21] | 1.1 °C | 0.8 °C | 1.8 °C | 1.6 °C | 0.6 °C | 7.1 °C | 2.7 °C | 0.5 °C | 0.2 °C | 1.9 °C | 0.4 °C | > 50 µM
Cc1cc(Cl)ccc1CNC(=O)Nc1ccc2cc1OCCOCCNc1ccn3ncc-2c3n1 [compound 23] | -0.3 °C | 1.7 °C | 0.8 °C | 0.8 °C | 0.3 °C | 6.5 °C | 3.3 °C | 0.5 °C | 0.5 °C | 2.1 °C | 0.7 °C | > 50 µM
Cc1cc(Br)ccc1CNC(=O)Nc1ccc2cc1OCCOCCNc1ccn3ncc-2c3n1 [compound 24] | 0.4 °C | 2.2 °C | 0.7 °C | 1.6 °C | -4.3 °C | 4 °C | 3.6 °C | 0.2 °C | 0.3 °C | 0.5 °C | 1.6 °C | > 50 µM
COc1ccc(CNC(=O)Nc2ccc3cc2OCCOCCNc2ccn4ncc-3c4n2)cc1 [compound 31] | 1.2 °C | 2.8 °C | 4.1 °C | 1.3 °C | -5.3 °C | 6.7 °C | 2.6 °C | 0.4 °C | 1 °C | 0.3 °C | 1.4 °C | –
